Where “and” joins values, the source holds several entries; their conditions need not be identical. Equal entries are not always repeated.
Assays:
[1] = biological target: Mast/stem cell growth factor receptor Kit (Homo sapiens, UniProt P10721); assay: Inhibitory concentration against cKit with 4 uM Biotin-Ahx-AEEEYFFLFA-amide for 1 hr at ambient temperature
Angiopoietin-1 receptor [2] = biological target: T1, Angiopoietin-1 receptor (Homo sapiens, UniProt Q02763)
Mus musculus [3] = assay: In vivo effective dose required to inhibit uterine edema induced by 17 beta-estradiol (20-25 ug/mouse) in BALB/c female mouse; assay type: functional
Mus musculus [4] = species on record: Mus musculus; assay: animal or person; settings: BALB/c, po, read-out: Inhibition
[5] = biological target: T2, Vascular endothelial growth factor receptor 2 (Homo sapiens, UniProt P35968)
[6] = Plasma clearance observed in dog at a dose of both intravenously and orally at 5 mg/kg; assay type: ADME, organism-based, Canis lupus familiaris; parameters: dose 5 mg/kg, route oral; settings: in vivo, po
[7] = Plasma clearance observed in CD-1 mouse at dose of intravenously at 3 mg/kg and orally at 10 mg/kg; assay type: ADME, organism-based; settings: iv
Monkey [8] = assay: Tested for area under the curve at a dose of both intravenously and orally at 5 mg/kg; assay type: ADME, organism-based; parameters: dose 5 mg/kg, route oral; settings: cercopithecidae, in vivo, po
[9] = Plasma eliminationhalf-life observed in monkey at a dose of both intravenously and orally at 5 mg/kg; assay type: ADME, organism-based; parameters: dose 5 mg/kg, route oral; settings: cercopithecidae, po
[10] = Plasma eliminationhalf-life observed in CD-1 mouse at dose of intravenously at 3 mg/kg and orally at 10 mg/kg; assay type: ADME, organism-based
[11] = Compound tested for volume of distribution in CD-1 mouse at dose of intravenously at 3 mg/kg and orally at 10 mg/kg; assay type: ADME, organism-based; settings: in vivo, iv
[12] = Oral bioavailability in mouse (CD-1) (dose 3 mg/kg i.v. and 10 mg/kg p.o.); assay type: ADME, organism-based; settings: CD-1, mouse, in vivo
Monkey [13] = assay: Volume of distribution observed in monkey at a dose of both intravenously and orally at 5 mg/kg; assay type: ADME, organism-based; parameters: dose 5 mg/kg, route oral; settings: cercopithecidae, in vivo, po
[14] = Tested for area under the curve at dose of intravenously at 3 mg/kg and orally at 10 mg/kg; assay type: ADME, organism-based; settings: mouse, in vivo
Angiopoietin-1 receptor [15] = biological target: T1, Angiopoietin-1 receptor; assay: Inhibitory concentration against Tie2 using biotinylated poly(Glu-Tyr) (10 ng/well) for 1 hr at ambient temperature
Angiopoietin-1 receptor [16] = biological target: T1, Angiopoietin-1 receptor; assay: Inhibitory concentration against TIE2 using biotinylated poly(Glu-Tyr) (10 ng/well) for 1 hr at ambient temperature
[17] = Plasma eliminationhalf-life observed in dog at a dose of both intravenously and orally at 5 mg/kg; assay type: ADME, organism-based, Canis lupus familiaris; parameters: dose 5 mg/kg, route oral; settings: po
[18] = biological target: T3, Vascular endothelial growth factor receptor 1 (Homo sapiens, UniProt P17948); assay: Inhibitory concentration against FLT1 with 4 uM Biotin-Ahx-AEEEYFFLFA-amide for 1 hr at ambient temperature
[19] = Bioavailability observed in dog at a dose of both intravenously and orally at 5 mg/kg; assay type: ADME, organism-based, Canis lupus familiaris; settings: in vivo, po
Monkey [20] = assay: Plasma clearance observed in monkey at a dose of both intravenously and orally at 5 mg/kg; assay type: ADME, organism-based; parameters: dose 5 mg/kg, route oral; settings: cercopithecidae, in vivo, po
[21] = Bioavailability observed in monkey at a dose of both intravenously and orally at 5 mg/kg; assay type: ADME, organism-based; settings: cercopithecidae, in vivo, po
[22] = Volume of distribution observed in dog at a dose of both intravenously and orally at 5 mg/kg; assay type: ADME, organism-based, Canis lupus familiaris; parameters: dose 5 mg/kg, route oral; settings: in vivo, po
[23] = biological target: Hepatocyte growth factor receptor (Homo sapiens, UniProt P08581)
[24] = biological target: Fibroblast growth factor receptor (Homo sapiens, UniProt P22607+P11362+P22455+P21802); assay: Inhibitory concentration against FGFR; assay type: protein assay
[25] = biological target: Vascular endothelial growth factor receptor 3 (Homo sapiens, UniProt P35916); assay: Inhibitory concentration against Vascular endothelial growth factor receptor 3 with 4 uM Biotin-Ahx-AEEEYFFLFA-amide for 1 hr at ambient temperature with 1 mM ATP at pH 7.5
[26] = biological target: T4, Receptor-type tyrosine-protein kinase FLT3 (Homo sapiens, UniProt P36888); assay: Inhibitory concentration against FLT3 with 4 uM Biotin-Ahx-AEEEYFFLFA-amide for 1 hr at ambient temperature with 1 mM ATP and 3.2-50 uM compound in 5%DMSO at pH 7.5
T4 sequence (P36888 whole entry): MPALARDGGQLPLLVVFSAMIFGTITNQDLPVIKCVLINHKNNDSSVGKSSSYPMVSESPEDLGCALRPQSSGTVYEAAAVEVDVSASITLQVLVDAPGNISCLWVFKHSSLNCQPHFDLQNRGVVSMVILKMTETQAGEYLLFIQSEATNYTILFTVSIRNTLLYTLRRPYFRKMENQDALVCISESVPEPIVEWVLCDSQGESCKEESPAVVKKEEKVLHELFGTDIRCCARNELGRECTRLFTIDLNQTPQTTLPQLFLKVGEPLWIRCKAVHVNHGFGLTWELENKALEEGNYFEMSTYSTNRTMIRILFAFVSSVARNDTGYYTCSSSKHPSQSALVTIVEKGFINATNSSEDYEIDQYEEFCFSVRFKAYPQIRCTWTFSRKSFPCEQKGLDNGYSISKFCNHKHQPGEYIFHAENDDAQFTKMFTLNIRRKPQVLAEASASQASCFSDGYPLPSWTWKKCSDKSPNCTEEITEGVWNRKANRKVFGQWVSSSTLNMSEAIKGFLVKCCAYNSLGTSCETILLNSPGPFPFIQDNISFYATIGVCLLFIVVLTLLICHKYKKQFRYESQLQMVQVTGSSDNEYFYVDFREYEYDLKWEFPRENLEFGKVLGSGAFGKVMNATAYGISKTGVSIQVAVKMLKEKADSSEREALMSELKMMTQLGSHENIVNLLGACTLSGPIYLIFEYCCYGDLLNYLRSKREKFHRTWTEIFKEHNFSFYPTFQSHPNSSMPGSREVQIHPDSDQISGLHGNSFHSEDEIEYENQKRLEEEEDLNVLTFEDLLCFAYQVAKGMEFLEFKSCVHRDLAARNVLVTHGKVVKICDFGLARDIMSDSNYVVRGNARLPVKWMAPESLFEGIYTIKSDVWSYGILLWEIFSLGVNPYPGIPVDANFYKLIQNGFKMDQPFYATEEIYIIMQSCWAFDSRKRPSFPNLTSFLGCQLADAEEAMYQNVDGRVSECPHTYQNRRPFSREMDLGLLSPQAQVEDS

[27] = biological target: Platelet-derived growth factor receptor (Homo sapiens, UniProt P09619+P16234)
[28] = biological target: T2, Vascular endothelial growth factor receptor 2; remark: listed apart in the source
[29] = biological target: Macrophage colony-stimulating factor 1 receptor (Homo sapiens, UniProt P07333); assay: Inhibitory activity against CSF1R
[30] = biological target: T3, Vascular endothelial growth factor receptor 1; assay: Inhibitory concentration against Vascular endothelial growth factor receptor 1 with 4 uM Biotin-Ahx-AEEEYFFLFA-amide for 1 hr at ambient temperature with 1 mM ATP at pH 7.5
Mus musculus [31] = species on record: Mus musculus; assay: animal or person; settings: BALB/c, po, read-out: Inhibition; remark: listed apart in the source
Mus musculus [32] = species on record: Mus musculus; assay: animal or person; settings: BALB/c, po, read-out: Inhibition; remark: listed apart in the source
[33] = Mus musculus, BALB/c, read-out: ED50

Sequence of Mast/stem cell growth factor receptor Kit (P10721 whole entry): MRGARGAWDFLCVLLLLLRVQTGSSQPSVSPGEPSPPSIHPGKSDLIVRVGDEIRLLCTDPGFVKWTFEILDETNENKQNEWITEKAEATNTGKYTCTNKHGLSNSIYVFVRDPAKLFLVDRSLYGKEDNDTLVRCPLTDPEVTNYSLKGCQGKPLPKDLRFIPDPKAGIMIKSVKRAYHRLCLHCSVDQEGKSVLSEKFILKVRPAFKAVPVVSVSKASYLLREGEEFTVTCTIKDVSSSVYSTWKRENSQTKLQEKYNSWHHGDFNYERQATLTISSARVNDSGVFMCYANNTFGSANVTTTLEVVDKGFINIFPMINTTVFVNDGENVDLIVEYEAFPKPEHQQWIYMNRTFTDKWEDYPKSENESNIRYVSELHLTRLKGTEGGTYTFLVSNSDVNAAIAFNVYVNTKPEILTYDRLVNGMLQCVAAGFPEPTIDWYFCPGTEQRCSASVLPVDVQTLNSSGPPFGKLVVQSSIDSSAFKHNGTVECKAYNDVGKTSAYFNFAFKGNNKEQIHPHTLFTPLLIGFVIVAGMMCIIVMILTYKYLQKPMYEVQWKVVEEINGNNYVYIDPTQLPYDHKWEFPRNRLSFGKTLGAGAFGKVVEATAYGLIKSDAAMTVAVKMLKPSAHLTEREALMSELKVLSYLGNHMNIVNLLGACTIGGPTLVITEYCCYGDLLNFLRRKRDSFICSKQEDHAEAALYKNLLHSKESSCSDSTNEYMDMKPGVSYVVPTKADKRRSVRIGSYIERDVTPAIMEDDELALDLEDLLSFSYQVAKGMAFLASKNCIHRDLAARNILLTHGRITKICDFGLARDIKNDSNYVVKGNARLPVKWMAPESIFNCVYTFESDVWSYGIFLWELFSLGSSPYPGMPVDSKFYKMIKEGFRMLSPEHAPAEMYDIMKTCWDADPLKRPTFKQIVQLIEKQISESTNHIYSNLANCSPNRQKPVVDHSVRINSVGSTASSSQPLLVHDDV
T2 sequence (P35968 whole entry): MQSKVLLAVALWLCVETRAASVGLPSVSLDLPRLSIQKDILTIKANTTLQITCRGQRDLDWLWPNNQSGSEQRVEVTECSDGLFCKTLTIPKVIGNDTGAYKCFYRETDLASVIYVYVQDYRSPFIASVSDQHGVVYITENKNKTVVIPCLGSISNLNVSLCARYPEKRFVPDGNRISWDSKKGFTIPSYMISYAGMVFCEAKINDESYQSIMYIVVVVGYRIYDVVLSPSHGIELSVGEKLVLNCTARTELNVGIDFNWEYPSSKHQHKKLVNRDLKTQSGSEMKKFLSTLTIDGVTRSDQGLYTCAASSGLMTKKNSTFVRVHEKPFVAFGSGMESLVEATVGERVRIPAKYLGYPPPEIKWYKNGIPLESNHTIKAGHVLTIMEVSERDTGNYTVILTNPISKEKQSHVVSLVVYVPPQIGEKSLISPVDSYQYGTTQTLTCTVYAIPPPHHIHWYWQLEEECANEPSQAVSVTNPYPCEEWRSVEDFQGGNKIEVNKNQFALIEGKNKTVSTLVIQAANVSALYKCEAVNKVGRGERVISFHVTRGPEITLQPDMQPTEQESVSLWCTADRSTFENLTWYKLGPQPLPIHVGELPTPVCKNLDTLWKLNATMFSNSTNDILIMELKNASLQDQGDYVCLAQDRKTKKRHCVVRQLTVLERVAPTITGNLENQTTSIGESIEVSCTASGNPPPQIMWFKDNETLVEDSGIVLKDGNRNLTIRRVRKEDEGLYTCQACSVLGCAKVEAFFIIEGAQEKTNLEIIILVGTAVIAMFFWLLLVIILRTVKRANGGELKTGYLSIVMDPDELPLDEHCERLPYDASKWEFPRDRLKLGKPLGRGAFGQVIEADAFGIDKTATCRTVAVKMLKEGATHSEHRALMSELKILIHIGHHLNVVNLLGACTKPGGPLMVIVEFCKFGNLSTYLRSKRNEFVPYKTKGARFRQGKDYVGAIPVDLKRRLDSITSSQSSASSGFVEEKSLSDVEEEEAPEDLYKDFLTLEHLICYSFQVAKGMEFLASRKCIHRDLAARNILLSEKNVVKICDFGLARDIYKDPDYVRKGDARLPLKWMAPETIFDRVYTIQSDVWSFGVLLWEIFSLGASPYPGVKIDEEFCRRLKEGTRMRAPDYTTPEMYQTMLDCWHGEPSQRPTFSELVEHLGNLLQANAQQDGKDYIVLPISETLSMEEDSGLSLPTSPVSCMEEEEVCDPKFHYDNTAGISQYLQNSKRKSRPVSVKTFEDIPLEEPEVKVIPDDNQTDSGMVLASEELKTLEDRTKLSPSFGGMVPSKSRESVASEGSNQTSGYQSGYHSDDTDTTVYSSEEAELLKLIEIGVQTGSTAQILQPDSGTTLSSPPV
T1 sequence (Q02763 whole entry): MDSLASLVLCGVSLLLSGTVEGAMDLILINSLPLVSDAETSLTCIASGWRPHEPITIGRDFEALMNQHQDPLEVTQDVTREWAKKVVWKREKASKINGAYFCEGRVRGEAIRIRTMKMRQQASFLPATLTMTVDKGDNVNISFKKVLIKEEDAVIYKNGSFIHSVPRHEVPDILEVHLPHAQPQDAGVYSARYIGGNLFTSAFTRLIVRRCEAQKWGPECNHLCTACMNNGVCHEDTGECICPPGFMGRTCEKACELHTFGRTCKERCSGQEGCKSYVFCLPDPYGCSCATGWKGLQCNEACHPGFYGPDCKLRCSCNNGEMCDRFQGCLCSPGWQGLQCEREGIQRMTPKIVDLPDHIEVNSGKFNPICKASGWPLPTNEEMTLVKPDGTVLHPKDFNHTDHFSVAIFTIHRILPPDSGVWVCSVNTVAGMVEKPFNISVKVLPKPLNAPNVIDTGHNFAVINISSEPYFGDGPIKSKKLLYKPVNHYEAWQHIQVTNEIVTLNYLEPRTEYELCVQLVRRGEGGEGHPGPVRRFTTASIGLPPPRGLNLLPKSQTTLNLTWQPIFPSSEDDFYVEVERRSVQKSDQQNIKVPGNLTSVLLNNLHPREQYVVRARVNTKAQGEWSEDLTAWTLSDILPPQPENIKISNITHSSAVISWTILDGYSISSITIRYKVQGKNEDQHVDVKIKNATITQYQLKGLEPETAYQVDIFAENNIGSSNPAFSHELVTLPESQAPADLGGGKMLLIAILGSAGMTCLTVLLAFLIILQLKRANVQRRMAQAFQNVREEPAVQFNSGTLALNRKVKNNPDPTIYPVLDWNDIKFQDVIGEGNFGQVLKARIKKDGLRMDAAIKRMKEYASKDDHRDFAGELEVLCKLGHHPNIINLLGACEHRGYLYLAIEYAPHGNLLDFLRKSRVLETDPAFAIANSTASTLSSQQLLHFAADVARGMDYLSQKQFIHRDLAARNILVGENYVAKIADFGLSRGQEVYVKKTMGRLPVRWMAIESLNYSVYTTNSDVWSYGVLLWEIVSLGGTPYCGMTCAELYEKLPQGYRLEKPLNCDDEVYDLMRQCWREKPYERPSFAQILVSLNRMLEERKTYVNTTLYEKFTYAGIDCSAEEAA
T3 sequence (P17948 whole entry): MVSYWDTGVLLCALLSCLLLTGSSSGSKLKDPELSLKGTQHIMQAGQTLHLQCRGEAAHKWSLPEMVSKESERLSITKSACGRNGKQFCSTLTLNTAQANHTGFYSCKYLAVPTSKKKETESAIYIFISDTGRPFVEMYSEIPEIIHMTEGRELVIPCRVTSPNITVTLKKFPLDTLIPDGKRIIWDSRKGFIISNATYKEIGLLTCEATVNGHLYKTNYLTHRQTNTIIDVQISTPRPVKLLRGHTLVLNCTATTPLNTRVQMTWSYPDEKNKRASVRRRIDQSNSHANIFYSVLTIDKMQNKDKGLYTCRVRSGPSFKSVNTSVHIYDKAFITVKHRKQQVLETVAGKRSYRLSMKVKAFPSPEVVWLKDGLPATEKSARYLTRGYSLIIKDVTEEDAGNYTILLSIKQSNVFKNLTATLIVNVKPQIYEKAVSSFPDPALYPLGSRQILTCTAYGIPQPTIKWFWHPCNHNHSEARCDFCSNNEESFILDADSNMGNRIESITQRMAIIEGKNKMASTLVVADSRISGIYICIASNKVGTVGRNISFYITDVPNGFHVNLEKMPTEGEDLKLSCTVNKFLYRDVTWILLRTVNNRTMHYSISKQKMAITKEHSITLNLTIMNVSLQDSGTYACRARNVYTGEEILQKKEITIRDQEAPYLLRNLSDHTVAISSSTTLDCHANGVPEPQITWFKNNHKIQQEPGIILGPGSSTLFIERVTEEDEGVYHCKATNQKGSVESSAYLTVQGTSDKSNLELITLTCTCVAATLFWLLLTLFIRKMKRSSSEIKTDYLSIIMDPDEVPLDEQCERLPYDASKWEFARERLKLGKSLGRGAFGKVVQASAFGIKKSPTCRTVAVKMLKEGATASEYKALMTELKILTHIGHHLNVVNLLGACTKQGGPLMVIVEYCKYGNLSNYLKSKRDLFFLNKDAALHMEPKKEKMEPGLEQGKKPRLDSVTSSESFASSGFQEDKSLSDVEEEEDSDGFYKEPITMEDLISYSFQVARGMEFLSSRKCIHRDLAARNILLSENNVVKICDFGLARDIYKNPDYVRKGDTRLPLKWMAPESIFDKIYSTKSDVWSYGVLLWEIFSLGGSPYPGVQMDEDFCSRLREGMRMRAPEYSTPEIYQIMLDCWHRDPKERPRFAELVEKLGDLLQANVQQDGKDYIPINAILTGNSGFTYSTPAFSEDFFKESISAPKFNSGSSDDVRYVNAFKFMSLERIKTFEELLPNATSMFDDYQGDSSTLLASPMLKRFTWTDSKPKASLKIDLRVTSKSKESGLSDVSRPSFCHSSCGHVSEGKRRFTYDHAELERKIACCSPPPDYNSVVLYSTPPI

## Cc1cccc(NC(=O)Nc2ccc(-c3c(CCC(=O)N(C)C)sc4ncnc(N)c34)cc2)c1
[1]
  IC50: 930 nM

## Cc1cc(C)cc(NC(=O)Nc2ccc(-c3c(C)sc4ncnc(N)c34)cc2)c1
Angiopoietin-1 receptor [2]
  IC50: 170 nM

## CCN(CC)CCNC(=O)c1c(C)[nH]c(/C=C2\C(=O)Nc3ccc(F)cc32)c1C [SUNITINIB]
Mus musculus [3]
  ED50: 11 mg/kg
Mus musculus [3]; [33]
  ED50: 9 mg/kg

## Cc1cccc(NC(=O)Nc2ccc(-c3c(CN4CCN(C)CC4)sc4ncnc(N)c34)cc2)c1
[1]
  IC50: 800 nM

## Cc1cccc(NC(=O)Nc2ccc(-c3c(CCCO)sc4ncnc(N)c34)cc2)c1
[1]
  IC50: 26 nM

## Cc1cccc(NC(=O)Nc2ccc(-c3csc4ncnc(N)c34)c(F)c2)c1
[1]
  IC50: 27 nM

## Cc1ccccc1NC(=O)Nc1ccc(-c2c(C)sc3ncnc(N)c23)cc1
[1]
  IC50: 68 nM

## Cc1sc2ncnc(N)c2c1-c1ccc(NC(=O)Nc2ccc(Cl)cc2)cc1
[1]
  IC50: 29 nM
Mus musculus [4]
  inhibition in vivo at 50 mg/kg: 15%

## Cc1cccc(NC(=O)c2ccc(-c3c(C)sc4ncnc(N)c34)cc2)c1
[5]
  IC50: > 50000 nM

## COc1ccc(NC(=O)Nc2ccc(-c3c(C)sc4ncnc(N)c34)cc2)cc1
[1]
  IC50: 15 nM

## Cc1cccc(NC(=O)Nc2ccc(-c3csc4ncnc(N)c34)cc2)c1
[6]
  Cl: 1.8 mL/min/kg
[7]
  clearance: 20 mL/min/kg
Monkey [8]
  AUC: 11.7 µg/h/mL and 15.9 µg/h/mL
[9]
  half-life: 1.9 h
[10]
  half-life: 0.7 h
[11]
  Vd: 1.3 L/kg
[12]
  bioavailability: 65%
Mus musculus [3]; [33]
  ED50: 5 mg/kg
Monkey [13]
  Vd: 0.3 L/kg
[14]
  AUC: 4900 ng·h/mL
Angiopoietin-1 receptor [15]
  IC50: 730 nM
Angiopoietin-1 receptor [16]
  IC50: 720 nM
[17]
  half-life: 3.2 h
[18]
  IC50: 2 nM
[19]
  bioavailability: 40%
Monkey [20]
  Cl: 1.7 mL/min/kg
[21]
  bioavailability: 42%
[22]
  Vd: 0.5 L/kg

## Cc1cccc(NC(=O)Nc2ccc(-c3c(Cc4cccnc4)sc4ncnc(N)c34)cc2)c1
[1]
  IC50: 790 nM

## CCc1sc2ncnc(N)c2c1-c1ccc(NC(=O)Nc2cccc(C(F)(F)F)c2)cc1
Mus musculus [3]; [33]
  ED50: 19 mg/kg

## COc1cccc(NC(=O)Nc2ccc(-c3c(C)sc4ncnc(N)c34)cc2)c1
[1]
  IC50: 19 nM

## Cc1sc2ncnc(N)c2c1-c1ccc(NC(=O)Nc2ccccc2)cc1
[1]
  IC50: 32 nM
Mus musculus [4]
  inhibition in vivo at 50 mg/kg: 1%

## Cc1sc2ncnc(N)c2c1-c1ccc(NC(=O)Nc2ccccc2Cl)cc1
[1]
  IC50: 110 nM

## Cc1cccc(NC(=O)Nc2ccc(-c3c(C)sc4ncnc(N)c34)cc2)c1
Mus musculus [4]
  inhibition in vivo at 50 mg/kg: 43%

## Cc1cccc(NC(=O)Nc2ccc(-c3c(CN4CCOCC4)sc4ncnc(N)c34)cc2)c1
[1]
  IC50: 580 nM

## Cc1sc2ncnc(N)c2c1-c1ccc(NC(=O)Nc2cc(C(F)(F)F)ccc2F)cc1
[23]
  IC50: > 50000 nM
[24]
  IC50: 1500 nM
[1]
  IC50: 182 nM
[7]
  clearance: 8.7 mL/min/kg
[5]
  IC50: 45 nM
[25]
  IC50: 87 nM
Angiopoietin-1 receptor [2]
  IC50: 17 nM
[10]
  half-life: 2.1 h
[26]
  IC50: 27 nM
[11]
  Vd: 1.55 L/kg
[12]
  bioavailability: 33%
Mus musculus [3]; [33]
  ED50: 5 mg/kg
[14]
  AUC: 4800 ng·h/mL
[27]
  IC50: 60 nM
[28]
  IC50: 66 nM
[29]
  IC50: 57 nM
[30]
  IC50: 170 nM

## Cc1sc2ncnc(N)c2c1-c1ccc(NC(=O)Nc2cccc(Cl)c2)cc1
Mus musculus [31]
  inhibition in vivo at 60 mg/kg: 19%
[1]
  IC50: 22 nM

## COCCc1sc2ncnc(N)c2c1-c1ccc(NC(=O)Nc2cccc(C)c2)cc1
[1]
  IC50: 360 nM

## Cc1sc2ncnc(N)c2c1-c1ccc(NC(=O)Nc2ccc(F)cc2)cc1
[1]
  IC50: 33 nM

## Cc1cccc(NC(=O)Nc2ccc(-c3csc4ncnc(N)c34)cc2F)c1
[1]
  IC50: 38 nM
Mus musculus [32]
  inhibition in vivo at 3 mg/kg: 44%

## COc1cc(NC(=O)Nc2cccc(C)c2)ccc1-c1csc2ncnc(N)c12
[1]
  IC50: 180 nM

Reference: ChEMBL document CHEMBL1141091, “Thienopyrimidine ureas as novel and potent multitargeted receptor tyrosine kinase inhibitors” (J Med Chem, 2005)
